How the values were obtained:
[1] = system: KCHSC: kochia (Kochia scoparia); experiment: Post-emergent Test III, herbicidal activity in wheat and barley; type: in vivo
In short: (§1)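 GR20, GR50, GR80 and GR90 come from probit analysis of visual injury scores (0 = none, 100 = complete kill) taken 21 d after treatment. Foliar application was by track sprayer delivering 187 L/ha at five rates, from high down to 1/16×, onto greenhouse plants at the 2–3 leaf stage, with solvent-blank controls.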

[2] = system: HORSS: barley, including spring and winter (Hordeum vulgare); experiment: as above; type: in vivo
In short: as §1

[3] = system: TRZSS: wheat, including spring and winter (Triticum aestivum); experiment: as above; type: in vivo
In short: as §1

[4] = system: MATSS: scented mayweed (Matricaria chamomilla), pineappleweed (Matricaria matricarioides); experiment: as above; type: in vivo
In short: as §1

[5] = system: LOLSS: ryegrass including, Italian ryegrass (Lolium multiflorum), rigid ryegrass (Lolium rigidum), annual ryegrass (Lolium multiflorum subsp. Gaudini); experiment: as above; type: in vivo; conditions: probit analysis, 21 days after application
In short: as §1

[6] = system: APESV: bentgrass (Apera spica-venti); experiment: as above; type: in vivo
In short: as §1

[7] = system: SETVI: green foxtail (Setaria viridis); experiment: as above; type: in vivo
In short: as §1

LAMSS = experiment: as above; type: in vivo
In short: as §1

[8] = as above; type: in vivo, Lolium multiflorum, Lolium rigidum; conditions: Lolium multiflorum, post-emergence, 504 h, read-out: Visual Growth Reduction (%) 21 Days After Application LOLSS
In short: as §1

[9] = system: BROTE: downy brome (Bromus tectorum); experiment: as above; type: in vivo
In short: as §1

[10] = probit analysis, dose for growth reduction of 50 percent, 21 days after application
[11] = probit analysis, dose for growth reduction of 80 percent, 21 days after application
[12] = probit analysis, dose for growth reduction of 20 percent, 21 days after application, crop

COC(=O)c1nc(-c2ccc(Cl)c(F)c2)c(F)c(N)c1Cl [Compound 216]
pest or weed control at 35 g/ha ([1]; Bassia scoparia, post-emergence, 504 h, 35 g ai/ha, read-out: Visual Growth Reduction (%) 21 Days After Application KCHSC): 95 to 100% | pest or weed control at 70 g/ha ([1]; Bassia scoparia, post-emergence, 504 h, 70 g ai/ha, read-out: Visual Growth Reduction (%) 21 Days After Application KCHSC): 95 to 100% | pest or weed control at 140 g/ha ([1]; Bassia scoparia, post-emergence, 504 h, 140 g ai/ha, read-out: Visual Growth Reduction (%) 21 Days After Application KCHSC): 95 to 100% | GR50 KCHSC [1, 10]: 1 g ai/ha | GR80 KCHSC [1, 11]: 2 g ai/ha | pest or weed control at 35 g/ha ([2]; Hordeum vulgare, post-emergence, 504 h, 35 g ai/ha, read-out: Visual Growth Reduction (%) 21 Days After Application HORSS): 85 to 94% | pest or weed control at 70 g/ha ([2]; Hordeum vulgare, post-emergence, 504 h, 70 g ai/ha, read-out: Visual Growth Reduction (%) 21 Days After Application HORSS): 85 to 94% | pest or weed control at 140 g/ha ([2]; Hordeum vulgare, post-emergence, 504 h, 140 g ai/ha, read-out: Visual Growth Reduction (%) 21 Days After Application HORSS): 85 to 94% | GR20 HORSS [2, 12]: 1 g ai/ha | pest or weed control at 35 g/ha ([3]; Triticum aestivum, post-emergence, 504 h, 35 g ai/ha, read-out: Visual Growth Reduction (%) 21 Days After Application TRZSS): 75 to 84% | pest or weed control at 70 g/ha ([3]; Triticum aestivum, post-emergence, 504 h, 70 g ai/ha, read-out: Visual Growth Reduction (%) 21 Days After Application TRZSS): 85 to 94% | pest or weed control at 140 g/ha ([3]; Triticum aestivum, post-emergence, 504 h, 140 g ai/ha, read-out: Visual Growth Reduction (%) 21 Days After Application TRZSS): 85 to 94% | GR20 TRZSS [3, 12]: 1 g ai/ha | pest or weed control at 35 g/ha ([4]; Matricaria chamomilla, post-emergence, 504 h, 35 g ai/ha, read-out: Visual Growth Reduction (%) 21 Days After Application MATSS): 75 to 84% | pest or weed control at 70 g/ha ([4]; Matricaria chamomilla, post-emergence, 504 h, 70 g ai/ha, read-out: Visual Growth Reduction (%) 21 Days After Application MATSS): 75 to 84% | pest or weed control at 140 g/ha ([4]; Matricaria chamomilla, post-emergence, 504 h, 140 g ai/ha, read-out: Visual Growth Reduction (%) 21 Days After Application MATSS): 85 to 94% | GR50 MATSS [4, 10]: 10 g ai/ha | GR80 MATSS [4, 11]: 62 g ai/ha | GR50 LOLSS ([5]; dose for growth reduction of 50 percent): 137 g ai/ha | GR80 LOLSS ([5]; dose for growth reduction of 80 percent): >140 g ai/ha | pest or weed control at 35 g/ha ([6]; Apera spica-venti, post-emergence, 504 h, 35 g ai/ha, read-out: Visual Growth Reduction (%) 21 Days After Application APESV): 85 to 94% | pest or weed control at 70 g/ha ([6]; Apera spica-venti, post-emergence, 504 h, 70 g ai/ha, read-out: Visual Growth Reduction (%) 21 Days After Application APESV): 85 to 94% | pest or weed control at 140 g/ha ([6]; Apera spica-venti, post-emergence, 504 h, 140 g ai/ha, read-out: Visual Growth Reduction (%) 21 Days After Application APESV): 95 to 100% | GR50 APESV [6, 10]: 6 g ai/ha | GR80 APESV [6, 11]: 20 g ai/ha | pest or weed control at 35 g/ha ([7]; Setaria viridis, post-emergence, 504 h, 35 g ai/ha, read-out: Visual Growth Reduction (%) 21 Days After Application SETVI): 60 to 74% | pest or weed control at 70 g/ha ([7]; Setaria viridis, post-emergence, 504 h, 70 g ai/ha, read-out: Visual Growth Reduction (%) 21 Days After Application SETVI): 75 to 84% | pest or weed control at 140 g/ha ([7]; Setaria viridis, post-emergence, 504 h, 140 g ai/ha, read-out: Visual Growth Reduction (%) 21 Days After Application SETVI): 85 to 94% | GR50 SETVI [7, 10]: 20 g ai/ha | GR80 SETVI [7, 11]: 64 g ai/ha | pest or weed control at 35 g/ha (LAMSS; post-emergence, 504 h, 35 g ai/ha, read-out: Visual Growth Reduction (%) 21 Days After Application LAMSS): 95 to 100% | pest or weed control at 70 g/ha (LAMSS; post-emergence, 504 h, 70 g ai/ha, read-out: Visual Growth Reduction (%) 21 Days After Application LAMSS): 95 to 100% | pest or weed control at 140 g/ha (LAMSS; post-emergence, 504 h, 140 g ai/ha, read-out: Visual Growth Reduction (%) 21 Days After Application LAMSS): 95 to 100% | GR50 LAMSS (LAMSS; [10]): 1 g ai/ha | GR80 LAMSS (LAMSS; [11]): 1 g ai/ha | pest or weed control at 35 g/ha ([8]; 35 g ai/ha): 0 to 29% | pest or weed control at 70 g/ha ([8]; 70 g ai/ha): 30 to 44% | pest or weed control at 140 g/ha ([8]; 140 g ai/ha): 45 to 59% | pest or weed control at 35 g/ha ([9]; Bromus tectorum, post-emergence, 504 h, 35 g ai/ha, read-out: Visual Growth Reduction (%) 21 Days After Application BROTE): 30 to 44% | pest or weed control at 70 g/ha ([9]; Bromus tectorum, post-emergence, 504 h, 70 g ai/ha, read-out: Visual Growth Reduction (%) 21 Days After Application BROTE): 45 to 59% | pest or weed control at 140 g/ha ([9]; Bromus tectorum, post-emergence, 504 h, 140 g ai/ha, read-out: Visual Growth Reduction (%) 21 Days After Application BROTE): 45 to 59% | GR50 BROTE [9, 10]: 136 g ai/ha | GR80 BROTE [9, 11]: >140 g ai/ha
